Assay results as given in US20110117026A1, “METHODS AND COMPOSITIONS FOR THE DELIVERY OF BIOACTIVE COMPOUNDS” (priority 2008, published 2011).
Non-standard residues stand in square brackets, D forms with d. Residues, ends and D or L forms follow the SMILES beside them. No end group written: not given here. pY = N[C@@H](Cc1ccc(OP(=O)(O)O)cc1)C(=O)O

What was measured:
[1] = molecular target: T1, STAT5b phosphorylation by EGFR (Homo sapiens, UniProt P51692); assay: Cell-free inhibition of STAT5b phosphorylation in H460 cell lysate (Western blot); format: biochemical
T1 construct: In a cell-free system containing the lysate of H460 cells treated with EGF; endogenous in cells; host or cells: H460 cell lysate (cells treated with EGF)
T1 sequence (P51692 1-787): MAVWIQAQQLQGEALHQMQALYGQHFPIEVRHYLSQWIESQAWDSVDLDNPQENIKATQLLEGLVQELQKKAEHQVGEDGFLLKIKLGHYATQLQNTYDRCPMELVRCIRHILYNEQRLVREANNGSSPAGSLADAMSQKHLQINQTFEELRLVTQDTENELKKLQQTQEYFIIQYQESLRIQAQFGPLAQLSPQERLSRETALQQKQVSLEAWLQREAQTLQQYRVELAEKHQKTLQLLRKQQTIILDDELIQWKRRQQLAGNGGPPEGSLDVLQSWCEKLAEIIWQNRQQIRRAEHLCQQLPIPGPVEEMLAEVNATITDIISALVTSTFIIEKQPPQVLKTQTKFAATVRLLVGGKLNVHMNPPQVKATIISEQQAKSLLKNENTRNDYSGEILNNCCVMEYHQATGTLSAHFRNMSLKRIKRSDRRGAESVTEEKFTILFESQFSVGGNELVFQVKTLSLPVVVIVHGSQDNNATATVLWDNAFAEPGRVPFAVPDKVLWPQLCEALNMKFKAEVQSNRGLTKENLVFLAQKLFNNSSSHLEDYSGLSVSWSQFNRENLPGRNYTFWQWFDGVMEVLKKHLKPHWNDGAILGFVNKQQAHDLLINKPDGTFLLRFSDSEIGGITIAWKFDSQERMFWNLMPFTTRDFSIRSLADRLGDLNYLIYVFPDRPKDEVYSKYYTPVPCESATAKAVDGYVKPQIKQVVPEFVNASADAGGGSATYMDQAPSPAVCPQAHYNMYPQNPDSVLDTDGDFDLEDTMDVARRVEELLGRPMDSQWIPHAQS
Procedure: FIGS. 20A and 20B show the inhibition of STAT5b phosphorylation by the EV peptide (SEQ ID NO: 3) in a tumor cell lysate. Increasing amounts of EV peptide was added to the assay mixture containing H460 cell lysate. The degree of STAT5b phosphorylation was detected by Western blot (FIG. 20A) using a phosphorylated STAT5b specific monoclonal antibody. The data was analyzed by Image J software to obtain the IC50 (FIG. 20B).
Studies were initiated by selecting a highly anionic peptide that can block an important intracellular signaling event. The phosphorylation and activation of the signal transducer and activator of transcription 5b (STAT5b) by the epidermal growth factor receptor (EGFR) tyrosine kinase was chosen as the targeted signaling event. STAT proteins are cytoplasmic proteins that function as secondary messengers and transcription factors. The STAT proteins have a phosphotyrosine binding domain of src-homology 2 (SH2). The potential of the SH2 domain to interact with a number of signaling proteins allow the STATs to interfere with multiple cell signaling pathways (Mohamad and Mohammad (2006) JK-Practitioner 13(4):215-221). STAT activation has been implicated in human cancer cells, including the activation of upstream receptor tyrosine kinases, such as the EGFR, as well as nonreceptor kinases. […]

H460 cells [2] = assay: Uptake of Alexa488 EV peptide by H460 cells; format: cell-based, human; details: Alexa488-labeled EV peptide, 4 h
Procedure: After treating H460 cells for four hours with an Alexa488 conjugated EV peptide formulated in LPH, PEG-LPH, or PEG-AA-LPH, cells were washed, treated with Triton X-100, and the fluorescence of the cell extract was determined with a fluorometer.
The uptake of the peptide by H460 cells was first studied in vitro. The EV peptide was fluorescently labeled with Alexa488 at the N-terminal α-NH2 group, purified by gel filtration, and formulated in the nanoparticles. […] Free EV peptide was not taken up by H460 cells at all.

H460 cells [3] = assay: Inhibition of H460 cell growth; format: cell-based, human; details: EV peptide 5 μM
Procedure: H460 cells were treated with the EV peptide (5 μM) formulated in LPH-PEG-AA, LPH-PEG, or as a free peptide.
(§1) The effect of the delivered EV peptide on the growth of H460 cells was then investigated.

H460 cells [4] = assay: Apoptosis of H460 cells by flow cytometry (annexin V, propidium iodide); format: cell-based, human; details: 48 hours after treatment
Procedure: Cells were stained with propidium iodide (PI) and Annexin V-FITC at 48 hours after treatment with a PEGylated LPH with AA or without AA.
as §1

recombinant caspase 3 = molecular target: T2, recombinant caspase 3 (Homo sapiens, UniProt P42574); assay: Cleavage of imaging peptide by caspase 3 (Cy5.5/Cy7 FRET, nanofluorometer); format: biochemical
T2 sequence (P42574 29-175 limits assumed): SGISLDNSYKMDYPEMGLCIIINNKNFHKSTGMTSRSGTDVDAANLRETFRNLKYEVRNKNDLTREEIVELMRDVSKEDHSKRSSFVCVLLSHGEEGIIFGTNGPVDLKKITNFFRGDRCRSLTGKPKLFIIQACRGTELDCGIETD
T2 sequence (P42574 176-277 limits assumed): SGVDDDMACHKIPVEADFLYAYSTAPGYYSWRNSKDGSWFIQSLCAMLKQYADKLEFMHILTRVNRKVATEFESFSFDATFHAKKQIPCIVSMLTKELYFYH
Procedure: The fluorescence emission profiles of untreated peptide (FIG. 27A), peptide treated with 60 units of caspase-3 for 2 hours (FIG. 27B), peptide treated with 0.1 mg BSA (FIG. 27C), and peptide treated with 60 units caspase-3 that was pre-incubated with 10 μM caspase-3 inhibitor for one hour (FIG. 27D) were measured with a nanofluorometer.
The fluorescence spectrum of the peptide was recorded with a nanofluorometer which only requires a 2 μL sample volume.

STAT5b = molecular target: T3, STAT5b (Homo sapiens, UniProt P51692); assay: STAT5b phosphorylation in intact H460 cells (ELISA); format: cell-based; details: 3.4 μM peptide, 24 h
T3 construct: endogenous in cells; host or cells: H460 cells
T3 sequence (P51692 1-787): T1 sequence (P51692 1-787)
Procedure: FIG. 22 provides a graph depicting the inhibition of STAT5b phosphorylation by the EV peptide. At 24 hours after treating H460 cells with LPH, LPH-PEG or LPH-PEG-AA comprising the EV (SEQ ID NO: 3) or EE (SEQ ID NO: 4) peptide or the free peptide at 3.4 μM, the reduction of phosphorylated Stat5b was assayed with an ELISA.
Next, the pharmacodynamics of the EV peptide was studied in vitro.

CC(C)C[C@H](NC(=O)[C@H](CCC(=O)O)NC(=O)[C@H](Cc1ccccc1)NC(=O)[C@H](Cc1ccc(OP(=O)(O)O)cc1)NC(=O)[C@H](CCC(=O)O)NC(=O)[C@H](CCC(=O)O)NC(=O)[C@H](CCC(=O)O)NC(=O)[C@@H](N)CCC(=O)O)C(=O)N[C@H](C(=O)O)C(C)C [EV peptide, EEEE(pY)FELV] (H-EEEE[pY]FELV-OH; C-terminus assumed)
IC50 [1]: 2.5 µM
uptake by H460 cells (H460 cells [2]): not taken up
effect on growth of H460 cells (H460 cells [3]): no effect
apoptosis, in words (H460 cells [4]): without any effect

Ac-KDEVDCDEVDKDEVDC (also: Cy5.5 on Cys, Cy7 on Lys) [imaging peptide, caspase 3 FRET reporter]
ratio of Cy5.5/Cy7 (recombinant caspase 3; after incubation with recombinant caspase 3 (60 units, 2 hours)): 2.70
ratio of Cy5.5/Cy7 (recombinant caspase 3; intact (untreated) peptide): 1.74

E(pY)ELFEEVE (E[pY]ELFEEVE) [EE peptide, reference compound]
effect on STAT5b phosphorylation, in words (STAT5b): did not show any significant effect
